Holding throughout (type): cell-based
The test system of experiment [1] is doxorubicin resistant breast cancer cell MCF-7/DOX. In words: SRB anti-proliferative assay, drug-resistant MCF-7/DOX. Particulars: Homo sapiens, MCF7-DOX, read-out: Anti-proliferative IC50, MCF-7/DOX. On the procedure: (§1) The present example evaluated the anti-tumor activity of the molecules provided by the present invention. The present example mainly used a method with SRB (sulforhodamine B) dying, in which proteins in the cell were stained with SRB dye to determine protein content in the cell so as to characterize cell growth density. Firstly, the test compound was formulated into a stock solution (10 mM), which was stored at 4° C. in a refrigerator. Prior to beginning the assay, the stock solution was diluted with DMSO into a series of different concentrations. The required concentrations were obtained by diluting with complete growth medium. Well growing cells were seeded in a 96-well plate (5000 cells/well, 100 uL) and cultured in an incubator at 37° C., 5% CO2, and 90% RH. 24 h later, the prepared compound solution (100 μL) was slowly added to cell solution in the 96-well plate, and the well with DMSO (final concentration 0.5%) instead of the drug was used as a drug free control. The plate was incubated for 48 h. In addition, a day 0 plate that was drug free was directly detected after cell seeded in the plate for 24 h. The 96-well plate was taken out and added with trichloroacetic acid (50 μL, final concentration 10%). The plate was incubated at 4° C. for 1 h to fix the cells.
(§2) The plate was washed with ultrapure water and air-dried. The plate was then stained with SRB dye (0.4% in 1% acetic acid, 100 μL) for 30 min at room temperature. The plate was then washed with 1% acetic acid and then air-dried. A Tris base solution (100 μL, 10 mM, pH10.4) was added, after which the plate was gently shaken for 1 h on an orbital shaker to ensure that the dyes were completed dissolved. The optical density (OD) was recorded on a TECAN Infinite M200 Pro multimode reader at 515 nm. The cell growth (% of control)=(OD value of wells added with drug−mean OD value of Day 0 plate)/(OD value of DMSO drug-free control well−mean OD value of Day 0 plate)*100.
(§3) We also evaluated the anti-proliferation activities of selected compounds against drug-resistant cancer cell lines.

In experiment [2] the test system is human colon cancer cells HCT8. In words: SRB anti-proliferative assay, HCT-8. Particulars: read-out: Anti-proliferative IC50, HCT-8. The procedure: as §1, §2
The test system of experiment [3] is cis-platinum resistant human lung cancer cell A549/CDDP. In words: SRB anti-proliferative assay, drug-resistant A549/CDDP. Particulars: read-out: Anti-proliferative IC50, A549/CDDP. The procedure:
as §1, §2, §3

For experiment [4], the system named is human nasopharyngeal carcinoma cells CNE2. In words: SRB anti-proliferative assay, CNE2. The settings on record: read-out: Anti-proliferative IC50, CNE2. The procedure:
as §1, §2

The subject of experiment [5] is human ovary cancer cells A2780. In words: SRB anti-proliferative assay, A2780. The settings on record: read-out: Anti-proliferative IC50, A2780. The procedure: as §1, §2
The test system of experiment [6] is Paclitaxel-resistant human ovarian carcinoma cell A2780/TAX. In words: SRB anti-proliferative assay, drug-resistant A2780/TAX. Particulars: read-out: Anti-proliferative IC50, A2780/TAX. The procedure: as §1, §2, §3
In experiment [7] the test system is human colon cancer cells SW480. In words: SRB anti-proliferative assay, SW480. Particulars: read-out: Anti-proliferative IC50, SW480. On the procedure: as §1, §2
Experiment [8] has as its system incristine resistant human ileocecum carcinoma cell HCT-8/VCT. In words: SRB anti-proliferative assay, drug-resistant HCT-8/VCT. The settings on record: HCT8/VCT, read-out: Anti-proliferative IC50, HCT-8/VCT. On the procedure: as §1, §2, §3
The subject of experiment [9] is human breast cancer cells MCF7. In words: SRB anti-proliferative assay, MCF-7. Particulars: read-out: Anti-proliferative IC50, MCF-7. On the procedure: as §1, §2
Experiment [10] relates to human liver cancer cell HepG2. In words: SRB anti-proliferative assay, HepG2. Particulars: read-out: Anti-proliferative IC50, HepG2. The procedure: as §1, §2
For experiment [11], the system named is human lung cancer cells A549. In words: SRB anti-proliferative assay, A549. The settings on record: read-out: Anti-proliferative IC50, A549. On the procedure:
as §1, §2

[12] abbreviates: doxorubicin resistant MCF-7/DOX, SRB.
Where [13] appears, read: cis-platinum resistant A549/CDDP, SRB.
Where [14] appears, read: paclitaxel-resistant A2780/TAX, SRB.
The mark [15] stands for this setting: vincristine-resistant HCT-8/VCT, SRB.

Our source for the IC50 values is patent US9988405B2, “O-phenyl chalcone compounds and uses thereof” (Neopanora Bio-technology (Zhuhai) Ltd., priority 2014, dated 2018).

Each structure is given as a SMILES string. Where two headings read alike, the source gives them in different places.

On to `COc1cccc2c1C(=O)c1c(O)c3c(c(O)c1C2=O)C[C@@](O)(C(=O)CO)C[C@@H]3O[C@H]1C[C@H](N)[C@H](O)[C@H](C)O1` [DOX, doxorubicin, reference compound], for which the IC50 was 14600 nM in [1] (setting [12]); 165 nM in [2] (HCT-8, SRB, 48 h); 290 nM in [3] (setting [13]); 75 nM in experiment [4] (CNE-2, CNE2, SRB, 48 h); 83 nM in experiment [5] (A2780, SRB, 48 h); 1940 nM in experiment [6] (setting [14]). Moreover, the IC50 in experiment [7] (SW480, SRB, 48 h) amounted to 98 nM; in [8] (setting [15]), 3420 nM; in [9] (MCF7, MCF-7, SRB, 48 h) it was 138 nM; in experiment [10] (HepG2, SRB, 48 h), 170 nM; in experiment [11] (A549, SRB, 48 h), 291 nM.

Turning to `CC(=O)O[C@H]1C(=O)[C@@]2(C)[C@H]([C@H](OC(=O)c3ccccc3)[C@]3(O)C[C@H](OC(=O)[C@H](O)[C@@H](NC(=O)c4ccccc4)c4ccccc4)C(C)=C1C3(C)C)[C@]1(OC(C)=O)CO[C@@H]1C[C@@H]2O` [TAX, paclitaxel, reference compound], the IC50 in experiment [3] (setting [13]) turned out to be 9 nM; in experiment [8] (setting [15]) it was 2600 nM.

For the compound `CC[C@]1(O)C[C@H]2CN(CCc3c([nH]c4ccccc34)[C@@](C(=O)OC)(c3cc4c(cc3OC)N(C=O)[C@H]3[C@@](O)(C(=O)OC)[C@H](OC(C)=O)[C@]5(CC)C=CCN6CC[C@]43[C@@H]65)C2)C1` [VCT, vincristine, reference compound], the IC50 in [1] (setting [12]) is 4250 nM; in experiment [3] (setting [13]), 56 nM; in [6] (setting [14]), 927 nM; in experiment [8] (setting [15]), 1920 nM.

For the compound `COc1ccc(/C=C/C(=O)c2ccccc2-c2cccc(F)c2)cc1B(O)O` [compound 6, (E)-(5-(3-(3′-Fluoro[1,1′-biphenyl]-2-yl)-3-oxoprop-1-en-1-yl)-2-methoxyphenyl)boronic Acid], the IC50 in experiment [1] (setting [12]) came to 74 nM; in [2] (HCT-8, SRB, 48 h) it was 54 nM; in experiment [3] (setting [13]), 63 nM; in experiment [4] (CNE-2, CNE2, SRB, 48 h), 55 nM; in [5] (A2780, SRB, 48 h) it was 62 nM; in [6] (setting [14]) it was 124 nM. Also, the IC50 in experiment [7] (SW480, SRB, 48 h) stood at 55 nM; in [8] (setting [15]), 78 nM; in experiment [9] (MCF7, MCF-7, SRB, 48 h), 83 nM; in [10] (HepG2, SRB, 48 h) it was 37 nM; in experiment [11] (A549, SRB, 48 h), 59 nM.

Consider `CN(C)c1ccc(/C=C/C(=O)c2ccccc2-c2cccc(F)c2)cc1` [compound 7, (E)-3-(4-(Dimethylamino)phenyl)-1-(3′-fluoro[1,1′-biphenyl]-2-yl)prop-2-en-1-one], for which the IC50 in experiment [1] (setting [12]) stood at 32 nM; in experiment [2] (HCT-8, SRB, 48 h) it was 92 nM; in [3] (setting [13]) it was 68 nM; in [4] (CNE-2, CNE2, SRB, 48 h), 25 nM; in [5] (A2780, SRB, 48 h), 73 nM; in experiment [6] (setting [14]), 55 nM. In addition, the IC50 in [7] (SW480, SRB, 48 h) was 44 nM; in [8] (setting [15]) it was 86 nM; in [9] (MCF7, MCF-7, SRB, 48 h), 48 nM; in [10] (HepG2, SRB, 48 h), 37 nM; in experiment [11] (A549, SRB, 48 h), 48 nM.

Regarding `COc1ccc(/C=C/C(=O)c2ccccc2-c2ccc(OC)c(OC)c2OC)cc1B(O)O` [compound 8], the IC50 in [1] (setting [12]) stood at 75 nM; in [2] (HCT-8, SRB, 48 h), 118 nM; in [3] (setting [13]) it was 247 nM; in experiment [4] (CNE-2, CNE2, SRB, 48 h) it was 86 nM; in experiment [5] (A2780, SRB, 48 h), 98 nM; in [6] (setting [14]), 234 nM. Further, the IC50 was determined as 74 nM in experiment [7] (SW480, SRB, 48 h); 156 nM in experiment [8] (setting [15]); 114 nM in experiment [9] (MCF7, MCF-7, SRB, 48 h); 78 nM in experiment [10] (HepG2, SRB, 48 h); 64 nM in experiment [11] (A549, SRB, 48 h).

`COc1ccc(-c2ccccc2C(=O)/C=C/c2ccc(N(C)C)cc2)c(OC)c1OC` [compound 9, (E)-1-(2′,3′,4′-trimethoxy[1,1′-biphenyl]-2-yl)-3-(4-(Dimethylamino)phenyl)prop-2-en-1-one]: the IC50 in experiment [1] (setting [12]) was determined as 53 nM; in experiment [2] (HCT-8, SRB, 48 h), 153 nM; in experiment [3] (setting [13]), 401 nM; in experiment [4] (CNE-2, CNE2, SRB, 48 h) it was 53 nM; in experiment [5] (A2780, SRB, 48 h), 117 nM; in [6] (setting [14]) it was 156 nM. Also, the IC50 in [7] (SW480, SRB, 48 h) stood at 37 nM; in experiment [8] (setting [15]), 169 nM; in [9] (MCF7, MCF-7, SRB, 48 h), 124 nM; in [10] (HepG2, SRB, 48 h), 72 nM; in experiment [11] (A549, SRB, 48 h), 85 nM.

For the compound `COc1ccc(/C=C/C(=O)c2ccccc2-c2cccc(F)c2)cc1OP(=O)(O)O` [compound 10, (E)-(5-(3-(3′-Fluoro[1,1′-biphenyl]-2-yl)-3-oxoprop-1-en-1-yl)-2-Methoxyphenol) phosphate ester], the IC50 in experiment [1] came to 10 nM; in experiment [2] (HCT-8, 48 h) it was 61 nM; in experiment [3] (A549/CDDP), 102 nM; in [4] (CNE-2, 48 h), 30 nM; in experiment [5] (A2780, 48 h), 59 nM; in experiment [6] (A2780/TAX) it was 92 nM. In addition, the IC50 worked out at 9 nM in [7] (SW480, 48 h); 115 nM in experiment [8]; 51 nM in [9] (MCF7, 48 h); 10 nM in experiment [10] (HepG2, 48 h); 10 nM in [11] (A549, 48 h).

Take `COc1ccc(/C=C/C(=O)c2ccccc2-c2ccc(F)cc2)cc1OP(=O)(O)O` [compound 11, (E)-(5-(3-(4′-Fluoro[1,1′-biphenyl]-2-yl)-3-oxoprop-1-en-1-yl)-2-Methoxyphenol) phosphate ester]: the IC50 worked out at 26 nM in [1]; 88 nM in experiment [2] (HCT-8, 48 h); 301 nM in experiment [3] (A549/CDDP); 52 nM in experiment [4] (CNE-2, 48 h); 65 nM in experiment [5] (A2780, 48 h); 125 nM in experiment [6] (A2780/TAX). Also, the IC50 worked out at 22 nM in [7] (SW480, 48 h); 263 nM in experiment [8]; 96 nM in experiment [9] (MCF7, 48 h); 39 nM in experiment [10] (HepG2, 48 h); 23 nM in experiment [11] (A549, 48 h).

For `O=C(/C=C/c1cccc(O)c1)c1ccccc1-c1cccc(F)c1` [compound 12, (E)-1-(3′-Fluoro[1,1′-biphenyl]-2-yl)-3-(3-hydroxy)prop-2-en-1-one], the IC50 was 26 nM in experiment [1] (setting [12]); 36 nM in experiment [2] (HCT-8, SRB, 48 h); 317 nM in experiment [3] (setting [13]); 55 nM in experiment [4] (CNE-2, CNE2, SRB, 48 h); 39 nM in experiment [5] (A2780, SRB, 48 h); 130 nM in [6] (setting [14]). For the same compound, the IC50 was found to be 48 nM in [7] (SW480, SRB, 48 h); 117 nM in [8] (setting [15]); 87 nM in [9] (MCF7, MCF-7, SRB, 48 h); 44 nM in experiment [10] (HepG2, SRB, 48 h); 44 nM in experiment [11] (A549, SRB, 48 h).

Take `CN(C)c1ccc(/C=C/C(=O)c2ccccc2-c2cccc(F)c2)cc1O` [compound 13, (E)-1-(3′-Fluoro[1,1′-biphenyl]-2-yl)-3-(3-hydroxy-4-(Dimethylamino)phenyl)prop-2-en-1-one]: the IC50 in experiment [1] (setting [12]) was found to be 5 nM; in experiment [2] (HCT-8, SRB, 48 h), 14 nM; in experiment [3] (setting [13]), 69 nM; in [4] (CNE-2, CNE2, SRB, 48 h), 15 nM; in [5] (A2780, SRB, 48 h), 10 nM; in experiment [6] (setting [14]) it was 43 nM. The IC50 was determined as 6 nM in [7] (SW480, SRB, 48 h); 37 nM in experiment [8] (setting [15]); 69 nM in [9] (MCF7, MCF-7, SRB, 48 h); 9 nM in experiment [10] (HepG2, SRB, 48 h); 11 nM in experiment [11] (A549, SRB, 48 h).
